Laboratory results published in patent US20220142914A1, “SUSPENSION FORMULATIONS OF HIGH LOAD DISPERSIONS” (Austin Research Labs Corp., priority 2018, published 2022).

Assay: Endotoxin (LPS) adsorption capacity and efficiency of sorbents
Format: binding
Settings: 96,528 ± 9,726 EU used, about 38-39.5 mg sorbent, n=6

For Polymycin B, -sulfate [PMB], the “Adsorption Capacity (EU/mg) ± SD” value was 1,746 ± 265 EU/mg, the “Adsorption Efficiency, E (%) ± SD” value was 69.66 ± 10.58% and the “LPS Conc. Post Incubation (EU/ml) ± SD” value was 760 ± 265 EU/ml. The “Log10 Reduction ± SD” value was 0.538 ± 0.142.
